Source: PMC12435366, “Maleic anhydride derived diphosphines: adaptable chelators for receptor-targeted ^99mTc, ^64Cu and ^188Re radiotracers” (Chemical Science, 2025)

System: LNCaP prostate cancer cells
Assay: In vitro uptake of 99mTc tracers in LNCaP cells
Type: cell-based
Details: co-incubation with PMPA, 1 h
Method: To compare the relative uptake and specificity of the new radiotracers for PSMA, [^99mTcO2(DP^Ph-PSMAt)2]^+, [^99mTcO2(DP^An-PSMAt)2]^+ and [^99mTcO2(DP^MEP-PSMAt)2]^+ (50 kBq) were purified from unreacted ^99mTc precursors and excess DP-PSMAt peptide, and each incubated with PSMA-expressing DU145-PSMA+ prostate cancer cells[33] or LNCaP prostate cancer cells (5 × 10^5 cells). After 1 h incubation, uptake of each radiotracer was quantified. […]
4.9 99mTc uptake in DU145, DU145-PSMA+ and LNCaP cells
The following experiment was performed in biological triplicate.
A panel of cell lines were selected that either expressed GCP(II)/PSMA (DU145-PSMA+ (genetically modified to express PSMA),12 and LNCaP (CRL‐1740)), or had low GCP(II)/PSMA expression (DU145 (HTB-81)). All cell lines were cultured in RPMI 1640 medium (R0883, Sigma) containing 10% foetal bovine serum, 2 mM L-glutamine, and 100 U mL−1 penicillin and 100 µg mL−1 streptomycin. Cells were maintained at 37 °C and 5% CO 2. Cells were seeded in 6-well plates at a density of 5 × 10^5 cells per well […]
in 2 mL complete media to achieve 70–80% confluency the following day. […] The cells were lysed with ice cold radioimmunoprecipitation assay buffer (RIPA buffer, 500 μL; 150 mM sodium chloride, 0.1% w/w sodium dodecyl sulfate (SDS), 0.5% w/w sodium deoxycholate (NaDOC), 1% w/w Triton-X) and samples were collected for radioactivity counting. […]

Row | Compound | blocking of cell uptake by PSMA inhibitor PMPA
1 | COc1ccc(P(/C(C(=O)O)=C(/C(=O)NCCOCCOCCOCCOCCC(=O)NCCCC[C@H](NC(=O)N[C@@H](CCC(=O)O)C(=O)O)C(=O)O)P(c2ccc(OC)cc2)c2ccc(OC)cc2)c2ccc(OC)cc2)cc1 [[^99mTcO2(DP^An-PSMAt)2]^+, metal not drawn] | blocked
2 | COCCOc1ccc(P(/C(C(=O)O)=C(/C(=O)NCCOCCOCCOCCOCCC(=O)NCCCC[C@H](NC(=O)N[C@@H](CCC(=O)O)C(=O)O)C(=O)O)P(c2ccc(OCCOC)cc2)c2ccc(OCCOC)cc2)c2ccc(OCCOC)cc2)cc1 [[^99mTcO2(DP^MEP-PSMAt)2]^+, metal not drawn] | blocked
